Results from patent US20100087649A1, “QUINOLINONE DERIVATIVES” (priority 2006, published 2010).

What was measured:
[1] = tested on: wild-type HIV-IIIB strain; test: Antiviral analysis EGFP: anti-HIV activity in MT4 LTR-EGFP cells; type: cell-based, HIV-1; details: fluorescence of HIV-infected cells reduced by 50%, three days after infection
Method: The compounds of the present invention were tested for anti-viral activity in a cellular assay, which was performed according to the following procedure.
The human T-cell line MT4 is engineered with Green Fluorescent Protein (GFP) and an HIV-specific promoter, HIV-1 long terminal repeat (LTR). This cell line is designated MT4 LTR-EGFP, and can be used for the in vitro evaluation of anti-HIV activity of investigational compounds. In HIV-1 infected cells, the Tat protein is produced which upregulates the LTR promotor and finally leads to stimulation of the GFP reporter production, allowing measuring ongoing HIV-infection fluorometrically.
(§1) Effective concentration values such as 50% effective concentration (EC50) can be determined and are usually expressed in μM. An EC50 value is defined as the concentration of test compound that reduces the fluorescence of HIV-infected cells by 50%. The 50% cytotoxic concentration (CC50 in μM) is defined as the concentration of test compound that reduces fluorescence of the mock-infected cells by 50%. The ratio of CC50 to EC50 is defined as the selectivity index (SI) and is an indication of the selectivity of the anti-HIV activity of the inhibitor. The ultimate monitoring of HIV-1 infection and cytotoxicity is done using a scanning microscope. Image analysis allows very sensitive detection of viral infection. Measurements are done before cell necrosis, which usually takes place about five days after infection, in particular measurements are performed three days after infection.
The following Table 5 lists EC50 values, expressed in micromole/liter, against wild-type HIV-IIIB strain, for a selected number of compounds of the invention.

MT4 CMV-EGFP cells = test: Cytotoxicity in mock-infected MT4 CMV-EGFP cells; type: cell-based, human; details: fluorescence reduced by 50%
Source text: Analogously, MT4 cells are engineered with GFP and the constitutional cytomegalovirus (CMV) promotor. This cell line is designated MT4 CMV-EGFP, and can be used for the in vitro evaluation of cytotoxicity of investigational compounds. In this cell line, GFP levels are comparably to those of infected MT4 LTR-EGFP cells. Cytotoxic investigational compounds reduce GFP levels of mock-infected MT4 CMV-EGFP cells.
as §1

Structure (SMILES)	EC50 [1]	CC50 (MT4 CMV-EGFP cells)
N#Cc1ccc(-n2c(=O)c(C#N)cc3ccccc32)cc1 [compound 2]	> 32 µM	> 32 µM
Cc1ccc(-n2c(=O)c(C#N)c(N)c3ccc(-c4cccs4)cc32)cc1C#N [compound 126]	5.7 µM	> 100 µM
N#Cc1cc2cc(OC[C@H]3CCCN3)ccc2n(-c2ccc([N+](=O)[O-])cc2)c1=O [compound 87]	1.19 µM	> 32 µM
COCCNc1ccc2cc(C#N)c(=O)n(-c3ccc([N+](=O)[O-])cc3)c2c1 [compound 17]	> 32 µM	> 32 µM
CCNCCCOc1ccc2cc(C#N)c(=O)n(-c3ccc([N+](=O)[O-])cc3)c2c1 [compound 65]	0.26 µM	69 µM
N#Cc1cc2cc(OCCCN)ccc2n(-c2ccc([N+](=O)[O-])cc2)c1=O [compound 84]	3.64 µM	15.5 µM
N#Cc1cc2ccc(O)cc2n(-c2ccc(Cl)nc2)c1=O [compound 91]	> 32 µM	> 32 µM
N#Cc1cc2ccc(-c3ccccn3)cc2n(-c2ccc([N+](=O)[O-])cc2)c1=O [compound 82]	0.54 µM	> 100 µM
N#Cc1cc2ccccc2n(-c2ccc(Cl)nc2)c1=O [compound 4]	> 32 µM	> 32 µM
N#Cc1c(N)c2ccc(Cl)cc2n(-c2ccc(Cl)c(F)c2)c1=O [compound 105]	> 100 µM	> 100 µM
N#Cc1cc2ccc(NCC3CCNC3)cc2n(-c2ccc([N+](=O)[O-])cc2)c1=O (stereo not shown) [compound 18]	4.43 µM	> 32 µM
N#Cc1cc2ccccc2n(-c2ccc([N+](=O)[O-])cn2)c1=O [compound 3]	4.8 µM	> 32 µM
CNc1c(C#N)c(=O)n(-c2ccc([N+](=O)[O-])cc2)c2ncccc12 [compound 128]	13.9 µM	> 32 µM
N#Cc1c(N)c2cc(Cl)ccc2n(-c2ccc([N+](=O)[O-])cc2)c1=O [compound 107]	> 100 µM	> 100 µM
N#Cc1cc2ccc(-c3ccoc3)cc2n(-c2ccc([N+](=O)[O-])cc2)c1=O [compound 41]	0.28 µM	38.1 µM
N#Cc1cc2ccc(-c3cccc(CO)c3)cc2n(-c2ccc([N+](=O)[O-])cc2)c1=O [compound 38]	0.61 µM	18.6 µM
N#Cc1cc2cc(OC[C@@H]3CCCN3)ccc2n(-c2ccc([N+](=O)[O-])cc2)c1=O [compound 88]	1.41 µM	6.54 µM
N#Cc1c(N)c2ccccc2n(-c2ccc(Cl)nc2)c1=O [compound 104]	19.5 µM	> 32 µM
CN(C)CCCOc1ccc2c(c1)cc(C#N)c(=O)n2-c1ccc([N+](=O)[O-])cc1 [compound 85]	1.15 µM	> 32 µM
N#Cc1cc2ccc(-c3cccc(O)c3)cc2n(-c2ccc([N+](=O)[O-])cc2)c1=O [compound 32]	0.65 µM	> 100 µM
N#Cc1cc2ccc(OCCCO)cc2n(-c2ccc([N+](=O)[O-])cc2)c1=O [compound 76]	1.03 µM	> 100 µM
CNCCCNc1ccc2cc(C#N)c(=O)n(-c3ccc([N+](=O)[O-])cc3)c2c1 [compound 22]	0.36 µM	88.7 µM
CNCCNc1ccc2cc(C#N)c(=O)n(-c3ccc([N+](=O)[O-])cc3)c2c1 [compound 15]	1.37 µM	> 32 µM
Cc1ccc2c(N)c(C#N)c(=O)n(-c3ccc([N+](=O)[O-])cc3)c2c1 [compound 115]	0.68 µM	> 100 µM
CN(C)Cc1cccc(-c2ccc3cc(C#N)c(=O)n(-c4ccc([N+](=O)[O-])cc4)c3c2)c1 [compound 45]	0.14 µM	17.1 µM

Structure (SMILES)	EC50 [1]	CC50 (MT4 CMV-EGFP cells)
CN(C)C(=O)c1ccc(-c2ccc3cc(C#N)c(=O)n(-c4ccc([N+](=O)[O-])cc4)c3c2)cc1 [compound 40]	0.95 µM	> 100 µM
CC(=O)NCCCOc1ccc2cc(C#N)c(=O)n(-c3ccc([N+](=O)[O-])cc3)c2c1 [compound 69]	10.2 µM	> 100 µM
N#Cc1cc2ccc(NCCCN)cc2n(-c2ccc([N+](=O)[O-])cc2)c1=O [compound 19]	0.91 µM	30.6 µM
N#Cc1cc2ccc(-c3cccc(N)c3)cc2n(-c2ccc([N+](=O)[O-])cc2)c1=O [compound 37]	0.42 µM	> 100 µM
N#Cc1c(N)c2cccnc2n(-c2ccc([N+](=O)[O-])cc2)c1=O [compound 129]	18.3 µM	> 32 µM
N#Cc1cc2ccc(OCCCN3CCCC3)cc2n(-c2ccc([N+](=O)[O-])cc2)c1=O [compound 73]	0.42 µM	36.4 µM
CCC(CC)NCCCOc1ccc2cc(C#N)c(=O)n(-c3ccc([N+](=O)[O-])cc3)c2c1 [compound 68]	0.73 µM	51.6 µM
N#Cc1cc2cc3c(cc2n(-c2ccc(Cl)nc2)c1=O)OCO3 [compound 97]	> 32 µM	> 32 µM
Cc1ccc(-n2c(=O)c(C#N)cc3ccc(-c4cccc(CN(C)C)c4)cc32)cc1C#N [compound 152]	0.58 µM	3.95 µM
N#Cc1cc2ccc(-c3cn[nH]c3)cc2n(-c2ccc([N+](=O)[O-])cc2)c1=O [compound 48]	0.71 µM	> 100 µM
N#Cc1cc2ccc(-c3nccs3)cc2n(-c2ccc([N+](=O)[O-])cc2)c1=O [compound 80]	0.13 µM	5.02 µM
N#Cc1c(NCc2ccccn2)c2ccccc2n(-c2ccc([N+](=O)[O-])cc2)c1=O [compound 131]	15.9 µM	> 100 µM
CC(=O)Nc1cccc(-c2ccc3cc(C#N)c(=O)n(-c4ccc(C)c(C#N)c4)c3c2)c1 [compound 155]	11 µM	> 100 µM
Cc1ccc(-n2c(=O)c(C#N)c(N)c3ccc(-c4ccsc4)cc32)cc1C#N [compound 125]	4.11 µM	> 100 µM
N#Cc1cc2ccc(OCCCNCCO)cc2n(-c2ccc([N+](=O)[O-])cc2)c1=O [compound 72]	0.93 µM	> 32 µM
CN(C)CCCNc1c(C#N)c(=O)n(-c2ccc([N+](=O)[O-])cc2)c2ccccc12 [compound 139]	2.16 µM	59.5 µM
N#Cc1cc2ccc(OCCCN)cc2n(-c2ccc([N+](=O)[O-])cc2)c1=O [compound 57]	1.06 µM	49.6 µM
CC(=O)NCCNc1c(C#N)c(=O)n(-c2ccc([N+](=O)[O-])cc2)c2ccccc12 [compound 141]	32.2 µM	> 100 µM
Cc1ccc(-n2c(=O)c(C#N)cc3ccc(-c4cc[nH]n4)cc32)cc1C#N [compound 153]	0.53 µM	> 100 µM
Cc1ccc(-n2c(=O)c(C#N)c(N)c3ccccc32)cc1C#N [compound 166]	3.01 µM	> 100 µM
N#Cc1cc2ccc(-c3cscn3)cc2n(-c2ccc([N+](=O)[O-])cc2)c1=O [compound 81]	0.15 µM	> 100 µM
Cc1ccc(-n2c(=O)c(C#N)cc3ccccc32)cn1 [compound 5]	> 32 µM	> 32 µM
Cc1ccc(-n2c(=O)c(C#N)c(N)c3ccc(-c4cc[nH]n4)cc32)cc1C#N [compound 124]	83.9 µM	> 100 µM
N#Cc1cc2ccc(NCc3cccnc3)cc2n(-c2ccc([N+](=O)[O-])cc2)c1=O [compound 23]	> 32 µM	> 32 µM
N#Cc1c(NCCCn2ccnc2)c2ccccc2n(-c2ccc([N+](=O)[O-])cc2)c1=O [compound 140]	> 100 µM	> 100 µM
